Laboratory results taken from patent US9073903B2, “Imidazole-2,4-dione inhibitors of casein kinase 1” (Jasco Pharmaceuticals, LLC, priority 2010, dated 2015).
Read-outs that look alike come from different tables or passages of the source.

Tests used:
Ovcar-3 cells = test: Inhibition of Ovcar 3 cells (MTS cell proliferation); format: cell-based; conditions: for OD value 1 / OD value 2: 490 nm; for OD value 1 / OD value 2 / inhibition at 0.4 µM / inhibition at 0.8 µM / inhibition at 1.6 µM / inhibition at 3.2 µM / inhibition at 6.25 µM / inhibition at 12.5 µM / inhibition at 25 µM / inhibition at 50 µM / inhibition at 100 µM: 72 h; for inhibition at 0.4 µM / inhibition at 0.8 µM / inhibition at 1.6 µM / inhibition at 3.2 µM / inhibition at 6.25 µM / inhibition at 12.5 µM / inhibition at 25 µM / inhibition at 50 µM / inhibition at 100 µM / IC50: Homo sapiens, OVCAR-3
Experimental: Inhibition of Ovcar 3 Cells Cells: Ovcar-3 cells, ATCC Passage 4, Mycoplasma free. Medium: RPMI-1640 Medium (GIBCO Cat #22400121) supplemented with 10% fetal bovine serum (Hyclone Cat #SH30396.03). Seeding: 3,000 cells/well (100 uL) were seeded into 96-wells plate, incubated overnight at 37° C. in a humidified, 5% CO2 atmosphere. Treatment: Test compounds and Gemcitabine were prepared in a serial dilution (1:2) by culture medium. Fifty microliters (50 uL) of serially diluted solutions were added into each well. The final concentrations of the positive control and test compounds were shown in the graphs. The cells were incubated for 72 hours after addition of the test compounds. MTS: 15 uL of MTS solution (Promega Cat #G5430) was added into each well and incubated with cells for 4 hours at 37° C. in a humidified, 5% CO2 atmosphere. Measurement: Absorbance at 490 nm was measured using MD Spectramax Plus384 spectrophotometer. The regression curves were calculated by the GraphPad Prism 5 using “log(inhibitor) vs response—variable slope”.

PC-3 cells = test: Inhibition of PC-3 cells (MTS cell proliferation); format: cell-based; conditions: for OD value 1 / OD value 2: 490 nm; for OD value 1 / OD value 2 / inhibition at 0.4 µM / inhibition at 0.8 µM / inhibition at 1.6 µM / inhibition at 3.2 µM / inhibition at 6.25 µM / inhibition at 12.5 µM / inhibition at 25 µM / inhibition at 50 µM / inhibition at 100 µM: 72 h; for inhibition at 0.4 µM / inhibition at 0.8 µM / inhibition at 1.6 µM / inhibition at 3.2 µM / inhibition at 6.25 µM / inhibition at 12.5 µM / inhibition at 25 µM / inhibition at 50 µM / inhibition at 100 µM / IC50: Homo sapiens, PC-3
Experimental: Inhibition of PC-3 Cells: Cells: PC-3 cells, ATCC Passage unknown, Mycoplasma free. Medium: DMEM Medium (GIBCO Cat #11995073) supplemented with 10% fetal bovine serum (Hyclone Cat #SH30396.03). Seeding: 3,000 cells/well (100 ul) into 96-wells plate, incubated overnight at 37° C. in a humidified, 5% CO2 atmosphere. Treatment: Test compounds and Gemcitabine were prepared in a serial dilution (1:2) by culture medium. Fifty microliters (50 uL) of serially diluted solutions were added into each well. The final concentrations of the positive control and test compounds were shown in the graphs. The cells were incubated for 72 hours after addition of the test compounds. MTS: 15 uL of MTS solution (Promega Cat #G5430) was added into each well and incubated with cells for 4 hours at 37° C. in a humidified, 5% CO2 atmosphere. Measurement: Absorbance at 490 nm was measured using MD Spectramax Plus384 spectrophotometer. The regression curves were calculated by the GraphPad Prism 5 using “log(inhibitor) vs response—variable slope”. Calculation: % of inhibition=(ODzero ctrl−OD compound)/ODzero ctrl*100.

SMILES: Nc1ccn([C@@H]2O[C@H](CO)[C@@H](O)C2(F)F)c(=O)n1 [Gemcitabine]
- OD value 1 (Ovcar-3 cells; 0.400 μM, replicate 1): 0.591
- OD value 2 (Ovcar-3 cells; 0.400 μM, replicate 2): 0.575
- OD value 1 (Ovcar-3 cells; 0.800 μM, replicate 1): 0.490
- OD value 2 (Ovcar-3 cells; 0.800 μM, replicate 2): 0.460
- OD value 1 (Ovcar-3 cells; 1.600 μM, replicate 1): 0.440
- OD value 2 (Ovcar-3 cells; 1.600 μM, replicate 2): 0.453
- OD value 1 (Ovcar-3 cells; 3.200 μM, replicate 1): 0.411
- OD value 2 (Ovcar-3 cells; 3.200 μM, replicate 2): 0.432
- OD value 1 (Ovcar-3 cells; 6.250 μM, replicate 1): 0.363
- OD value 2 (Ovcar-3 cells; 6.250 μM, replicate 2): 0.388
- OD value 1 (Ovcar-3 cells; 12.500 μM, replicate 1): 0.257
- OD value 2 (Ovcar-3 cells; 12.500 μM, replicate 2): 0.234
- OD value 1 (Ovcar-3 cells; 25.000 μM, replicate 1): 0.040
- OD value 2 (Ovcar-3 cells; 25.000 μM, replicate 2): 0.009
- OD value 1 (Ovcar-3 cells; 50.000 μM, replicate 1): 0.020
- OD value 2 (Ovcar-3 cells; 50.000 μM, replicate 2): 0.010
- OD value 1 (Ovcar-3 cells; 100.000 μM, replicate 1): 0.012
- OD value 2 (Ovcar-3 cells; 100.000 μM, replicate 2): 0.011
- inhibition at 0.4 µM (Ovcar-3 cells; 0.400 μM, replicate 1, read-out: % of inhibition 1): 1.5%
- inhibition at 0.4 µM (Ovcar-3 cells; 0.400 μM, replicate 2, read-out: % of inhibition 2): -4.93%
- inhibition at 0.8 µM (Ovcar-3 cells; 0.800 μM, replicate 1, read-out: % of inhibition 1): 18.3%
- inhibition at 0.8 µM (Ovcar-3 cells; 0.800 μM, replicate 2, read-out: % of inhibition 2): 16.1%
- inhibition at 1.6 µM (Ovcar-3 cells; 1.600 μM, replicate 1, read-out: % of inhibition 1): 26.6%
- inhibition at 1.6 µM (Ovcar-3 cells; 1.600 μM, replicate 2, read-out: % of inhibition 2): 17.4%
- inhibition at 3.2 µM (Ovcar-3 cells; 3.200 μM, replicate 1, read-out: % of inhibition 1): 31.5%
- inhibition at 3.2 µM (Ovcar-3 cells; 3.200 μM, replicate 2, read-out: % of inhibition 2): 21.2%
- inhibition at 6.25 µM (Ovcar-3 cells; 6.250 μM, replicate 1, read-out: % of inhibition 1): 39.5%
- inhibition at 6.25 µM (Ovcar-3 cells; 6.250 μM, replicate 2, read-out: % of inhibition 2): 29.2%
- inhibition at 12.5 µM (Ovcar-3 cells; 12.500 μM, replicate 1, read-out: % of inhibition 1): 57.2%
- inhibition at 12.5 µM (Ovcar-3 cells; 12.500 μM, replicate 2, read-out: % of inhibition 2): 57.3%
- inhibition at 25 µM (Ovcar-3 cells; 25.000 μM, replicate 1, read-out: % of inhibition 1): 93.4%
- inhibition at 25 µM (Ovcar-3 cells; 25.000 μM, replicate 2, read-out: % of inhibition 2): 98.4%
- inhibition at 50 µM (Ovcar-3 cells; 50.000 μM, replicate 1, read-out: % of inhibition 1): 96.7%
- inhibition at 50 µM (Ovcar-3 cells; 50.000 μM, replicate 2, read-out: % of inhibition 2): 98.1%
- inhibition at 100 µM (Ovcar-3 cells; 100.000 μM, replicate 1, read-out: % of inhibition 1): 98%
- inhibition at 100 µM (Ovcar-3 cells; 100.000 μM, replicate 2, read-out: % of inhibition 2): 98%
- IC50 (Ovcar-3 cells; Table 18, read-out: OVCAR-3* 50% inhibition concentration): 11.2 µM
- IC50 (Ovcar-3 cells; Table 26, Ovcar3, 72 hours, read-out: 50% viability conc.): 11.2 µM
- IC50 (Ovcar-3 cells; Table 26, Ovcar3, 72 hours, read-out: IC50): 9.87 µM
- Maximal inhibition % (Ovcar-3 cells; Table 26, Ovcar3, 72 hours): 98%
- OD value 1 (PC-3 cells; 0.400 uM, replicate 1): 0.884
- OD value 2 (PC-3 cells; 0.400 uM, replicate 2): 0.866
- OD value 1 (PC-3 cells; 0.800 uM, replicate 1): 0.860
- OD value 2 (PC-3 cells; 0.800 uM, replicate 2): 0.803
- OD value 1 (PC-3 cells; 1.600 uM, replicate 1): 0.794
- OD value 2 (PC-3 cells; 1.600 uM, replicate 2): 0.778
- OD value 1 (PC-3 cells; 3.200 uM, replicate 1): 0.726
- OD value 2 (PC-3 cells; 3.200 uM, replicate 2): 0.756
- OD value 1 (PC-3 cells; 6.250 uM, replicate 1): 0.686
- OD value 2 (PC-3 cells; 6.250 uM, replicate 2): 0.692
- OD value 1 (PC-3 cells; 12.500 uM, replicate 1): 0.617
- OD value 2 (PC-3 cells; 12.500 uM, replicate 2): 0.628
- OD value 1 (PC-3 cells; 25.000 uM, replicate 1): 0.572
- OD value 2 (PC-3 cells; 25.000 uM, replicate 2): 0.583
- OD value 1 (PC-3 cells; 50.000 uM, replicate 1): 0.458
- OD value 2 (PC-3 cells; 50.000 uM, replicate 2): 0.488
- OD value 1 (PC-3 cells; 100.000 uM, replicate 1): 0.246
- OD value 2 (PC-3 cells; 100.000 uM, replicate 2): 0.214
- inhibition at 0.4 µM (PC-3 cells; 0.400 uM, replicate 1, read-out: % of inhibition 1): 2.1%
- inhibition at 0.4 µM (PC-3 cells; 0.400 uM, replicate 2, read-out: % of inhibition 2): 1.92%
- inhibition at 0.8 µM (PC-3 cells; 0.800 uM, replicate 1, read-out: % of inhibition 1): 4.8%
- inhibition at 0.8 µM (PC-3 cells; 0.800 uM, replicate 2, read-out: % of inhibition 2): 9.05%
- inhibition at 1.6 µM (PC-3 cells; 1.600 uM, replicate 1, read-out: % of inhibition 1): 12%
- inhibition at 1.6 µM (PC-3 cells; 1.600 uM, replicate 2, read-out: % of inhibition 2): 11.9%
- inhibition at 3.2 µM (PC-3 cells; 3.200 uM, replicate 1, read-out: % of inhibition 1): 19.7%
- inhibition at 3.2 µM (PC-3 cells; 3.200 uM, replicate 2, read-out: % of inhibition 2): 14.3%
- inhibition at 6.25 µM (PC-3 cells; 6.250 uM, replicate 1, read-out: % of inhibition 1): 24.1%
- inhibition at 6.25 µM (PC-3 cells; 6.250 uM, replicate 2, read-out: % of inhibition 2): 21.7%
- inhibition at 12.5 µM (PC-3 cells; 12.500 uM, replicate 1, read-out: % of inhibition 1): 31.7%
- inhibition at 12.5 µM (PC-3 cells; 12.500 uM, replicate 2, read-out: % of inhibition 2): 28.9%
- inhibition at 25 µM (PC-3 cells; 25.000 uM, replicate 1, read-out: % of inhibition 1): 36.7%
- inhibition at 25 µM (PC-3 cells; 25.000 uM, replicate 2, read-out: % of inhibition 2): 34%
- inhibition at 50 µM (PC-3 cells; 50.000 uM, replicate 1, read-out: % of inhibition 1): 49.3%
- inhibition at 50 µM (PC-3 cells; 50.000 uM, replicate 2, read-out: % of inhibition 2): 44.5%
- inhibition at 100 µM (PC-3 cells; 100.000 uM, replicate 1, read-out: % of inhibition 1): 72.8%
- inhibition at 100 µM (PC-3 cells; 100.000 uM, replicate 2, read-out: % of inhibition 2): 75.8%
- IC50 (PC-3 cells; Table 18, read-out: PC-3* 50% inhibition concentration): 41.3 µM
- IC50 (PC-3 cells; Table 26, 72 hours, read-out: 50% viability conc.): 41.3 µM
